Test results reported in patent publication US20020192201A1, “Crohn's disease treatment methods” (priority 1998, published 2002).
Read-outs that look alike come from different tables or passages of the source.

What was measured:
[1] = test system: M. para. isolated from resected tissue of CD patients; test: in vitro test of seven antituberculosis drugs against M. para. using the Bactec system; assay type: cell-based, Mycobacterium paratuberculosis; details: for MIC50 (50% M. para. cells inhibited or killed) / MIC99.9 (99.9% M. para. cells inhibited or killed): M. para. from resected tissue of CD patients
[2] = test system: MAP-positive and MAP-negative Crohn's disease patients (ELISA); test: comparison of age-matched MAP-positive and MAP-negative patients at 1 year (CDAI); assay type: in vivo, human
Source text: Another study was undertaken to compare age-matched MAP-positive and -negative patients utilizing ELISA analysis forserum antibodies to MAP. 10 MAP-positive and 10 MAP-negative patients were compared at 1 year, utilizing the CDAI score as a primary endpoint. The elimination of corticosteroids and the need for immunotherapy were considered secondary endpoints. […] Steroids were eliminated in 8 of 10 patients, with 2 patients requiring low-dose steroids. In the MAP-negative group at 1 year, 6 of 10 patients were in complete remission, with an entry CDAI score of 308 and an exit score of 179. Of the responsive patients, 3 of 6 required additional immunotherapy, and 3 remained on antibiotics alone.

| Compound | Status (resistant/sensitive) [1] | MIC50 (50% M. para. cells inhibited or killed) ([1]; Bactec system) [µg/mL] | MIC99.9 (99.9% M. para. cells inhibited or killed) ([1]; Bactec system) [µg/mL] | Status (resistant/sensitive) ([1]; Bactec system) | outcome in patients unresponsive to antibiotics [2] |
| --- | --- | --- | --- | --- | --- |
| CC[C@H]1OC(=O)[C@H](C)[C@@H](O[C@H]2C[C@@](C)(OC)[C@@H](O)[C@H](C)O2)[C@H](C)[C@@H](O[C@@H]2O[C@H](C)C[C@H](N(C)C)[C@H]2O)[C@](C)(OC)C[C@@H](C)C(=O)[C@H](C)[C@@H](O)[C@]1(C)O [CLR, clarithromycin] | S | <0.25 | <1.25 | – | – |
| CC[C@@H](CO)NCCN[C@@H](CC)CO [EMB, ethambutol] | – | <0.5 | <3.0 | S | – |
| NNC(=O)c1ccncc1 [INH, isoniazid] | – | >20 | >20 | R | – |
| NC[C@H]1O[C@H](O[C@H]2[C@H](O)[C@@H](O[C@H]3O[C@H](CO)[C@@H](O)[C@H](N)[C@H]3O)[C@H](N)C[C@@H]2N)[C@H](O)[C@@H](O)[C@@H]1O [KM, kanamycin] | – | <1.3 | <3.0 | R | – |
| NC(=O)c1cnccn1 [PZA, pyrazinamide] | – | >20 | >20 | R | – |
| CO[C@H]1/C=C/O[C@@]2(C)Oc3c(C)c(O)c4c(O)c(c(/C=N/N5CCN(C)CC5)c(O)c4c3C2=O)NC(=O)/C(C)=C\C=C\[C@H](C)[C@H](O)[C@@H](C)[C@@H](O)[C@@H](C)[C@H](OC(C)=O)[C@@H]1C [RIF, Rifampicin] | – | >1.0 | >2.6 | R | – |
| [H]/N=C(/N)N[C@H]1[C@H](O)[C@@H](O)[C@H](O[C@@H]2O[C@@H](C)[C@](O)(C=O)[C@H]2O[C@@H]2O[C@@H](CO)[C@H](O)[C@@H](O)[C@@H]2NC)[C@@H](N/C(N)=N\[H])[C@@H]1O [ST, streptomycin] | – | >0.4 | >3.0 | R | – |
| infliximab | – | – | – | – | induction of remission in all patients |
